In patent US20040132969A1, “Antibodies, peptides, analogs and uses thereof” (priority 2000, published 2004):
“Also recorded” adds a separate entry of the source.

Experiments:
[1] = tested on: FDP induced cell proliferation in the chick CAM; assay: CAM cell proliferation assay in the presence of FDP; format: in vivo
Experimental: Cell proliferation was measured using the chick chorioallantoic membrane (CAM) model as described previously (4, 29, 30).
Briefly, on day zero, fertile hens' eggs, are placed in an egg incubator 37.5° C. with pointed ends facing downwards. On day 3, using a 2 ml syringe with a 21G needle, 2 ml of albumen is removed and the eggs returned to the incubator. On day 4, each egg is punctured by a needle at the blunt end into the air space. A square of shell is then removed, causing the egg contents to drop into the space left by collapse of the air space at the end of the egg and the withdrawal of albumen. The volume of the space above the dropped CAM is approximately 7 ml. The square opening in the shell is covered with Sellotape (RTM). The eggs then have to be kept level in the incubator without tilting. On day 10, the surviving eggs are organised into groups of preferably no less than 10. Test and control samples are prepared and each egg receives 0.3 ml of sample injected through the Sellotape (RTM) onto the upper surface of the CAM.
The technique of removal of each CAM is simple but crucial to the rationale of achieving results expressed as total DPM per CAM. By 20 min, methyl-[^3H]thymidine is incorporated only into the CAM which has been directly exposed. Beyond 30 min, [^3H]thymidine becomes detectable in adjacent CAM that is applied to the shell, via uptake from the bloodstream. Each CAM is removed by holding the egg in the palm of one hand, Sellotape window face down, and piercing the side with pointed scissors well above the level of the dropped CAM. Scissors are used to cut round the shell, and the residual yolk and embryo tipped out into a disposal container once the umbilical vessels connecting the embryo to the CAM are cut. […]
The assay used is based on quantitative measurement of DNA synthesis in the CAM after exposure to control and test substances 18 h after application in liquid form to the whole “dropped” area of each CAM (4,29). […]

[2] = tested on: chick chorioallantoic membrane (CAM) vessels; assay: Vessel counting assay using CAM model; format: in vivo
Experimental: The CAM were prepared as for the tritiated thymidine assay.
Dulbecco's phosphate buffered saline was used as a control. A range of concentrations of peptides WTM33, WTM34, and WTM35 (1.875, 3.75, 7.5, 15, 30, and 60 μg/ml) were added to the CAM. Inoculations of 0.2 ml of the peptide were carried out on days 10,11 and 12 of CAM development, and then fixed using formalin on day 15.
After fixing in formalin for 2 days the CAM were excised and spoke like sections cut from the centre of the CAM to the outer edge. These were embedded in wax and processed on to slides with H&E staining to visualise the vessels in the section. The numbers of vessels per field of vision, over 10 fields were counted using an Olympus microscope. [Eyepieces set at 58, using ×40 (0.65) lens, from the graticule diameter of field is 0.45 mm, and therefore 1 mm is equal to 2.22 fields of view.] The average number of vessels/field of view×2.22 gives number of vessels/mm of CAM.

[3] = tested on: human umbilical vein endothelial cells (HUVEC) co-cultured with primary human diploid fibroblasts; assay: Angiosys co-culture angiogenesis assay (HUVEC tubule formation); format: cell-based
Description: The recently developed Angiosys™ co-culture angiogenesis assay (TCS Cell Works, Botolph Claydon, UK) was employed to examine the biological activity of the fibrin E analogue peptides WTM33, WTM34, WTM35, WTM36, and WTM37. This assay involves the co-culturing of human umbilical vein endothelial cells (HUVEC) with primary human diploid fibroblasts. In control cultures treated by the standard method as supplied by the manufacturers, both cell populations increase in number to form a confluent fibroblast monolayer on top off which the HUVEC cells form into corded structures. These structures thicken and anastomose by day 14 to form an intricate network of microvessel-like structures that resemble a capillary bed. It has previously been shown that the control conditions in this assay result in an intermediate degree of formation of these microtubules that can be enhanced by angiogenic effectors such as vascular endothelial growth factor (VEGF), or reduced by anti-angiogenic agents such as suramin (33).
The Angiosys™ assay was used as directed by the manufacturer. Briefly, HUVEC and human diploid fibroblasts were admixed, seeded into 24-well culture plates and incubated for 14 days in endothelial cell culture medium (ECM, TCS Cell Works). This medium, which was replaced with fresh every second day, contains angiogenic factors such as VEGF. Fibrin E analogue peptides were dissolved in this same medium to the indicated concentrations and applied to the cells in the same way as control medium. After the incubation period of 14 days, medium was removed and the cells were fixed in situ at room temperature in 70% ethanol and viewed with an MRC 600 confocal microscope (Bio-Rad). Images were captured using a JVC videocamera mounted on the microscope and coupled to a Neotech Image Grabber/PC.
The table illustrates the […] effects of peptide WTM 35 and 36 (0.19-0.75 μg/ml) on HUVEC tubule formation in the Angiosys™ co-culture angiogenesis assay, compared with an untreated control. The table show the average tubule length obtained using an image analysis package for the PC which transforms the visual data into pixels: […]

Q: What does the source list for LHADPDLGVLCPTGC [WTM34]?
A: effect on FDP-induced stimulation of cell proliferation ([1]; low / lower concentrations of peptide, 5 μM FDPs): significant inhibition of the FDP induced stimulation; effect on FDP-induced stimulation of cell proliferation ([1]; peptide at 4.633 μM and 9.265 μM, 5 μM FDPs): does not appear to affect the FDP-induced stimulation of cell proliferation; effect on FDP-induced stimulation of cell proliferation ([1]; peptide in the presence of FDPs (5 μM) / fibrin): some inhibitory effect; effect on vessel number ([2]; 30 microgrammes/ml): significant reduction in the number of vessels; effect on number of vessels per mm of CAM ([2]; across the range of concentrations tested (1.875-60 μg/ml)): inhibits cell proliferation and vessel formation in the CAM; effect on number of vessels per mm of CAM ([2]; across the range of concentrations tested (1.875-60 μg/ml), listed as WTM 34): more dramatic biphasic reaction; effect on number of vessels per mm of CAM ([2]; higher dose range / very high doses): significant reduction in vessel formation; effect on vessel number ([2]; low doses): stimulatory effect on vessel number; HUVEC tubule formation (in words) ([3]; 0.75, 0.38 and 0.19 μg/ml): inhibit HUVEC tubule formation; also recorded: complete inhibition - no tubule; toxic effect (number of fibroblasts and endothelial cells present) ([3]; Angiosys system): did not have a toxic effect; HUVEC tubule formation (in words) ([3]; across the range of / all concentrations): inhibition of HUVEC tubule formation; also recorded: most inhibitory; HUVEC tubule formation (in words) ([3]; lowest applied doses of 3 μg/ml): markedly reduced the formation of tubules
